Reference: patent US9434743B2, “Indazole derivatives” (TAKEDA PHARMACEUTICAL COMPANY LIMITED, priority 2012, dated 2016)

Tests used:
[1] = target: T1, human MetAP2 enzyme (Homo sapiens, UniProt P50579); assay: MetAP2 enzyme assay, enzyme complexed with cobalt ions; details: MetAP2 Co pIC50, MetAP2 enzyme complexed with cobalt ions; Met-AMC substrate at Km
[2] = target: T1, human MetAP2 enzyme; assay: MetAP2 enzyme assay, enzyme complexed with manganese ions; details: MetAP2 Mn pIC50, MetAP2 enzyme complexed with manganese ions; Met-AMC substrate at Km
Experimental: DNA encoding the full-length sequence of human MetAP2 enzyme is amplified by PCR and cloned into a pFastBac expression vector (Invitrogen). Recombinant baculovirus incorporating the MetAP2 construct is generated by transposition using the Bac-to-Bac system (Invitrogen). The expression of recombinant protein is carried out by infection of Spodoptera frugiperda Sf9 cells (Invitrogen) in 5 L Wave Bioreactors (Wave Biotech). Recombinant protein is isolated from cellular extracts by binding to an SP Hitrap Fast Flow or SP Sepharose (Sigma) column, and the protein is eluted using a NaCl gradient. Partially purified extracts of MetAP2 are further purified by an AKTA FPLC over a Superdex-200 column (GE). The purity of MetAP2 protein is determined on denaturing SDS-PAGE gel.
The results for each well are expressed as percent inhibition and calculated using the equation:

T1 sequence (P50579 whole entry): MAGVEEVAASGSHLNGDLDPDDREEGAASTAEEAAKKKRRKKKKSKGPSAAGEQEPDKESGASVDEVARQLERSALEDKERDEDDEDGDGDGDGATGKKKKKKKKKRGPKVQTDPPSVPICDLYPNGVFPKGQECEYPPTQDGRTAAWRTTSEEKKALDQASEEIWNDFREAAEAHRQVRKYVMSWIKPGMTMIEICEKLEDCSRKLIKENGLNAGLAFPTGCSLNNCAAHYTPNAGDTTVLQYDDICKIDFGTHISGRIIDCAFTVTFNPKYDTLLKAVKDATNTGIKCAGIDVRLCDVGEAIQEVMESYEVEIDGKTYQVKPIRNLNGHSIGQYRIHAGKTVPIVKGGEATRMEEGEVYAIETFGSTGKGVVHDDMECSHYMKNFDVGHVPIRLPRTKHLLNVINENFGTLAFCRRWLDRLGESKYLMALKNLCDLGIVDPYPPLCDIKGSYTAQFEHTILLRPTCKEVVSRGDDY

`Fc1c(-c2cc(C(F)(F)F)cc3[nH]ncc23)ccnc1N1CCOCC1` [Example 65, 4-(3-fluoro-4-(6-(trifluoromethyl)-1H-indazol-4-yl)pyridin-2-yl)morpholine] was tested, and the IC50 [1] was 15.8 nM and the IC50 [2] was 12.6 nM.
`Cc1ccc(C(=O)N2CCC(O)CC2)cc1-c1cc(C(F)(F)F)cc2[nH]ncc12` [Example 372, (4-hydroxypiperidin-1-yl)(4-methyl-3-(6-(trifluoromethyl)-1H-indazol-4-yl)phenyl)methanone] showed an IC50 [1] of 100 nM and an IC50 [2] of 31.6 nM.
With `Cn1cc(C(=O)NCC(F)F)cc(-c2cc(C(F)(F)F)cc3[nH]ncc23)c1=O` [Example 355, N-(2,2-difluoroethyl)-1-methyl-6-oxo-5-(6-(trifluoromethyl)-1H-indazol-4-yl)-1,6-dihydropyridine-3-carboxamide] the IC50 [1] was 316 nM and the IC50 [2] was 5.01 nM.
Work on `Cc1c(-c2cc(C(F)(F)F)cc3[nH]ncc23)ccc(=O)n1CC#N` [Example 405, 2-(6-methyl-2-oxo-5-(6-(trifluoromethyl)-1H-indazol-4-yl)pyridin-1(2H)-yl)acetonitrile] yielded an IC50 [1] of 79.4 nM and an IC50 [2] of 10 nM.
With `Cc1nn(CC#N)c(C)c1-c1cc(C(F)(F)F)cc2[nH]ncc12` [Example 170, 2-(3,5-dimethyl-4-(6-(trifluoromethyl)-1H-indazol-4-yl)-1H-pyrazol-1-yl)acetonitrile] the IC50 [1] was 100 nM and the IC50 [2] was 20 nM.
`FC(F)(F)c1cc(-c2cnc3ncccn23)c2cn[nH]c2c1` [Example 151, 3-(6-(trifluoromethyl)-1H-indazol-4-yl)imidazo[1,2-a]pyrimidine] showed an IC50 [1] of 200 nM and an IC50 [2] of 6.31 nM.
With `Cc1nc(-n2cnnc2)ccc1-c1cc(C(F)(F)F)cc2[nH]ncc12` [Example 383, 4-(2-methyl-6-(4H-1,2,4-triazol-4-yl)pyridin-3-yl)-6-(trifluoromethyl)-1H-indazole] the IC50 [1] was 20 nM and the IC50 [2] was 5.01 nM.
With `Cc1c(C(=O)N2CCN(C)CC2)cc(-c2cc(C(F)(F)F)cc3[nH]ncc23)c(=O)n1C` [Example 401, 1,6-dimethyl-5-(4-methylpiperazine-1-carbonyl)-3-(6-(trifluoromethyl)-1H-indazol-4-yl)pyridin-2(1H)-one] the IC50 [1] was 200 nM and the IC50 [2] was 6.31 nM.
`O=C(NCCO)c1cc(-c2cc(C(F)(F)F)cc3[nH]ncc23)ccn1` [Example 308, N-(2-hydroxyethyl)-4-(6-(trifluoromethyl)-1H-indazol-4-yl)picolinamide] gave an IC50 [1] of 79.4 nM and an IC50 [2] of 6.31 nM.
For `O=C1CNc2ncc(-c3cc(C(F)(F)F)cc4[nH]ncc34)cc2N1` [Example 244, 7-(6-(trifluoromethyl)-1H-indazol-4-yl)-3,4-dihydropyrido[2,3-b]pyrazin-2(1H)-one], the IC50 [1] was 31.6 nM and the IC50 [2] was 5.01 nM.
`NC(=O)c1ncc(-c2cc(C(F)(F)F)cc3[nH]ncc23)cn1` [Example 295, 5-(6-(trifluoromethyl)-1H-indazol-4-yl)pyrimidine-2-carboxamide] gave an IC50 [1] of 200 nM and an IC50 [2] of 6.31 nM.
`Cn1cc(-c2cc(C(F)(F)F)cc3[nH]ncc23)c(CO)n1` [Example 220, (1-methyl-4-(6-(trifluoromethyl)-1H-indazol-4-yl)-1H-pyrazol-3-yl)methanol] showed an IC50 [1] of 79.4 nM and an IC50 [2] of 6.31 nM.
`CN1C(=O)COc2ccc(-c3cc(C(F)(F)F)cc4[nH]ncc34)cc21` [Example 296, 4-methyl-6-(6-(trifluoromethyl)-1H-indazol-4-yl)-2H-benzo[b][1,4]oxazin-3(4H)-one] showed an IC50 [1] of 20 nM and an IC50 [2] of 6.31 nM.
In the case of `COc1cncc(-c2cc(C(F)(F)F)cc3[nH]ncc23)c1` [Example 42, 4-(5-methoxypyridin-3-yl)-6-(trifluoromethyl)-1H-indazole], the IC50 [1] is reported as 63.1 nM and the IC50 [2] is reported as 6.31 nM.
With `CN1CCN(C(=O)c2cc(-c3cc(C(F)(F)F)cc4[nH]ncc34)c[nH]c2=O)CC1` [Example 227, 3-(4-methylpiperazine-1-carbonyl)-5-(6-(trifluoromethyl)-1H-indazol-4-yl)pyridin-2(1H)-one] the IC50 [1] was 126 nM and the IC50 [2] was 7.94 nM.
For `COc1ccc(-c2cc(C(F)(F)F)cc3[nH]ncc23)c(C(N)=O)n1` [Example 201, 6-methoxy-3-(6-(trifluoromethyl)-1H-indazol-4-yl)picolinamide], the IC50 [1] was 794 nM and the IC50 [2] was 20 nM.
`O=C(NCCO)c1cncc(-c2cc(C(F)(F)F)cc3[nH]ncc23)c1` [Example 290, N-(2-hydroxyethyl)-5-(6-(trifluoromethyl)-1H-indazol-4-yl)nicotinamide] was tested, and the IC50 [1] was 251 nM and the IC50 [2] was 7.94 nM.
`N#Cc1ccccc1-c1cc(C(F)(F)F)cc2[nH]ncc12` [Example 52, 2-(6-(trifluoromethyl)-1H-indazol-4-yl)benzonitrile] gave an IC50 [1] of 126 nM and an IC50 [2] of 12.6 nM.
`Cc1nc(N2CCN(C)CC2)ccc1-c1cc(C(F)(F)F)cc2[nH]ncc12` [Example 400, 4-(2-methyl-6-(4-methylpiperazin-1-yl)pyridin-3-yl)-6-(trifluoromethyl)-1H-indazole] was tested, and the IC50 [1] was 12.6 nM and the IC50 [2] was 7.94 nM.
Work on `COc1ccc(N)c(-c2cc(C(F)(F)F)cc3[nH]ncc23)n1` [Example 184, 6-methoxy-2-(6-(trifluoromethyl)-1H-indazol-4-yl)pyridin-3-amine] yielded an IC50 [1] of 501 nM and an IC50 [2] of 20 nM.
`C[C@H](CO)Nc1ncc(-c2cc(C(F)(F)F)cc3[nH]ncc23)cn1` [Example 206, (R)-2-(5-(6-(trifluoromethyl)-1H-indazol-4-yl)pyrimidin-2-ylamino)propan-1-ol] was tested, and the IC50 [1] was 79.4 nM and the IC50 [2] was 7.94 nM.
Work on `Cn1cc2c(-c3cc(C(F)(F)F)cc4[nH]ncc34)cccc2n1` [Example 15, 2′-methyl-6-(trifluoromethyl)-1H,2′H-4,4′-biindazole] yielded an IC50 [1] of 10 nM and an IC50 [2] of 6.31 nM.
In the case of `FC(F)(F)c1cc(-c2cnc3cnccn23)c2cn[nH]c2c1` [Example 152, 3-(6-(trifluoromethyl)-1H-indazol-4-yl)imidazo[1,2-a]pyrazine], the IC50 [1] is reported as 2000 nM and the IC50 [2] is reported as 126 nM.
`Cc1cc(C(=O)N2CC(O)C2)ccc1-c1cc(C(F)(F)F)cc2[nH]ncc12` [Example 361, (3-hydroxyazetidin-1-yl)(3-methyl-4-(6-(trifluoromethyl)-1H-indazol-4-yl)phenyl)methanone] gave an IC50 [1] of 15.8 nM and an IC50 [2] of 10 nM.
`COc1ccc(CC(=O)N2CCOCC2)cc1-c1cc(C(F)(F)F)cc2[nH]ncc12` [Example 316, 2-(4-methoxy-3-(6-(trifluoromethyl)-1H-indazol-4-yl)phenyl)-1-morpholinoethanone] was tested, and the IC50 [1] was 50.1 nM and the IC50 [2] was 10 nM.
`NC(=O)c1cc(F)ccc1-c1cc(C(F)(F)F)cc2[nH]ncc12` [Example 203, 5-fluoro-2-(6-(trifluoromethyl)-1H-indazol-4-yl)benzamide] was tested, and the IC50 [1] was 3980 nM and the IC50 [2] was 79.4 nM.
With `Cc1cnc(-c2cc(C(F)(F)F)cc3[nH]ncc23)n1C` [Example 162, 4-(1,5-dimethyl-1H-imidazol-2-yl)-6-(trifluoromethyl)-1H-indazole] the IC50 [1] was 316 nM and the IC50 [2] was 6.31 nM.
Work on `Cc1nn(Cc2cnn(C)c2)c(CO)c1-c1cc(C(F)(F)F)cc2[nH]ncc12` [Example 410, (3-methyl-1-((1-methyl-1H-pyrazol-4-yl)methyl)-4-(6-(trifluoromethyl)-1H-indazol-4-yl)-1H-pyrazol-5-yl)methanol] yielded an IC50 [1] of 15.8 nM and an IC50 [2] of 6.31 nM.
`FC(F)(F)c1cc(-c2cnn(Cc3ccncc3)c2)c2cn[nH]c2c1` [Example 43, 4-(1-(pyridin-4-ylmethyl)-1H-pyrazol-4-yl)-6-(trifluoromethyl)-1H-indazole] was tested, and the IC50 [1] was 79.4 nM and the IC50 [2] was 6.31 nM.
`FC(F)(F)c1cc(-c2cnc3[nH]ccc3n2)c2cn[nH]c2c1` [Example 240, 2-(6-(trifluoromethyl)-1H-indazol-4-yl)-5H-pyrrolo[2,3-b]pyrazine] gave an IC50 [1] of 158 nM and an IC50 [2] of 5.01 nM.
With `Nc1ncc(-c2cc(C(F)(F)F)cc3[nH]ncc23)cc1C(=O)NCCO` [Example 230, 2-amino-N-(2-hydroxyethyl)-5-(6-(trifluoromethyl)-1H-indazol-4-yl)nicotinamide] the IC50 [1] was 158 nM and the IC50 [2] was 7.94 nM.
For `O=C(Cn1cncn1)NCc1ccccc1-c1cc(C(F)(F)F)cc2[nH]ncc12` [Example 202, 2-(1H-1,2,4-triazol-1-yl)-N-(2-(6-(trifluoromethyl)-1H-indazol-4-yl)benzyl)acetamide], the IC50 [1] was 501 nM and the IC50 [2] was 25.1 nM.
Molecule `Cn1cc(-c2cc(C(F)(F)F)cc3[nH]ncc23)c(=O)n(Cc2ccc(F)cc2)c1=O` [Example 311, 3-(4-fluorobenzyl)-1-methyl-5-(6-(trifluoromethyl)-1H-indazol-4-yl)pyrimidine-2,4(1H,3H)-dione] has an IC50 [1] of 1000 nM and an IC50 [2] of 63.1 nM.
`CN(C)C(=O)c1cc(-c2cc(C(F)(F)F)cc3[nH]ncc23)c(=O)n(C)c1` [Example 353, N,N,1-trimethyl-6-oxo-5-(6-(trifluoromethyl)-1H-indazol-4-yl)-1,6-dihydropyridine-3-carboxamide] showed an IC50 [1] of 794 nM and an IC50 [2] of 15.8 nM.
With `CN1CCN(C(=O)c2cc(-c3cc(C(F)(F)F)cc4[nH]ncc34)ccn2)CC1` [Example 284, (4-methylpiperazin-1-yl)(4-(6-(trifluoromethyl)-1H-indazol-4-yl)pyridin-2-yl)methanone] the IC50 [1] was 79.4 nM and the IC50 [2] was 7.94 nM.
Molecule `NC(=O)Cc1cccc(-c2cc(C(F)(F)F)cc3[nH]ncc23)c1` [Example 38, 2-(3-(6-(trifluoromethyl)-1H-indazol-4-yl)phenyl)acetamide] has an IC50 [1] of 50.1 nM and an IC50 [2] of 10 nM.
Work on `C[C@@H](O)CNC(=O)c1cc(-c2cc(C(F)(F)F)cc3[nH]ncc23)c(=O)n(C)c1` [Example 358, (R)—N-(2-hydroxypropyl)-1-methyl-6-oxo-5-(6-(trifluoromethyl)-1H-indazol-4-yl)-1,6-dihydropyridine-3-carboxamide] yielded an IC50 [1] of 501 nM and an IC50 [2] of 10 nM.
With `N#Cc1ncc(-c2cc(C(F)(F)F)cc3[nH]ncc23)cn1` [Example 198, 5-(6-(trifluoromethyl)-1H-indazol-4-yl)pyrimidine-2-carbonitrile] the IC50 [1] was 631 nM and the IC50 [2] was 12.6 nM.
